Several values for one entry are separate records, joined by “and”; a condition that tells them apart may be missing. Equal entries are not always repeated. Where two headings read alike, the source gives them in different places.
What was measured:
[1] = biological target: T1, SS-1 sites (sst2 receptors) (Rattus norvegicus, UniProt P30680); assay: Ex-vivo binding of [^125I]-labeled Tyr^3 analogue of Octreotride (SS-1/sst2) in rat cortex and hippocampus after s.c. dosing; parameters: species or system Wistar rats; details: for NS non specific binding, individual animals / NS non specific binding, mean / SB specific binding, individual animals / SB specific binding, mean / TB total binding, individual animals / TB total binding, mean / percent specific binding remaining compared to controls: Tyr^3-Oct, 60 min
T1 construct: from tissue; host or cells: Wistar rat cerebral cortex and hippocampus homogenate
T1 sequence (P30680 whole entry): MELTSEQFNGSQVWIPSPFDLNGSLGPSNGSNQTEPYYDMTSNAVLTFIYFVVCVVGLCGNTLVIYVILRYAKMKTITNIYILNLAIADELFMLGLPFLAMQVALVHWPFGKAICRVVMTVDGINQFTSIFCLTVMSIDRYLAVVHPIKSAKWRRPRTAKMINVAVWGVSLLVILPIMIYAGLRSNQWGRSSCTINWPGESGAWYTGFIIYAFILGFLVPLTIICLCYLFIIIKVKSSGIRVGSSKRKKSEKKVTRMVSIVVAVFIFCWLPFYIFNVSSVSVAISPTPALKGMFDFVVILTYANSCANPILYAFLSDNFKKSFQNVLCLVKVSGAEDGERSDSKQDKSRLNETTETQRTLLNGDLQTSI
Experimental: Ex-vivo binding was used to determine to whether compound 14 (a potent sst2 receptor selective hydantoin) when applied peripherally to rates can cross the blood brain barrier, as robust behavioral models are not fully characterized and blood-brain penetration models are not routinely available. […] The rats were given saline or drug sub-cutaneously at the indicated dose (in saline) and killed 60 minutes after application with CO2. The brain was removed and placed on ice; the cerebral cortex and hippocampus were dissected out and weighted. […] The homogenate was stored on ice and used immediately or deep frozen (-70° C.) until used (1-3 days). […] The filters were dried and counted in a Wallac Beta plate counter. The tables list the effects of compound 14 on cortex (Table 6) and hippocampus (Table 7) binding at the doses and times indicated (see also FIGS. 3 and 4). TB=total binding, NS=non specific binding, SB=specific binding. The values are indicated in cpm for individual animals, mean, n=number of animals, sem=standard error of the mean; percent=% specific binding remaining following treatment compared to controls.

[2] = Brain penetration in rat after 48-hour intravenous infusion; format: in vivo; details: rats; for concentration at 48 h / Kp at 48 h: male, rat, iv, 100 μg/h; for Kp at 48 h: brain/whole blood
Experimental: The in vivo brain penetration of compound 42 after a 48-hour intravenous infusion was assessed. [^14C]-42-ch was intravenously administered to 5 male rats at a loading dose of 0.3 mg(-b)/rat and then infused at a constant rate of 100 μg(-b)/h for 48 hours using a syringe pump connected to the femoral vein. Immediately after stopping the infusion, the rats were sacrificed. Blood and brain were collected and analyzed for total radioactivity and unchanged compound 42.

[3] = Capillary depletion of brain hemispheres; format: in vivo, rat; details: n=3 rats
Experimental: The brain extraction ratio E was calculated from E=BUI*0.62, where 0.62 represents the brain extraction ratio of tritiated water (Pardridge, W. M. et al. “Absence of albumin receptor on brain capillaries in vivo or in vitro” Am. J. Physiol, 1985, 249, E264-E267). In order to quantify a possible sequestration of [^14C]-42 by the brain microvasculature, the brain hemispheres of 3 rats were submitted to capillary depletion (Triguero, D, et al. “Capillary depletion method for quantifying the blood-brain barrier transcytosis of circulating peptides and plasma proteins” J. Neurochem, 1990, 54, 1882-1888). The ^14C-radioactivity observed in the pellet (capillary bed/endothelial cells and pericytes) was compared to the ^14C-radioactivity observed in the supernatant (transcytosis space/interstitial fluid).

[4] = Plasma protein binding, equilibrium dialysis, rat plasma; format: in vitro ADME
Experimental: In vitro blood distribution and plasma protein binding. For blood distribution studies, fresh, heparinized rat blood (n=3) was spiked with [^14C]-42 to achieve the final concentrations of 5, 50, 500 and 5000 ng/mL. After a 30-minutes incubation at 4° C., 22° C. and 37° C., the samples were centrifuged (1600×g, 10 minutes, at the incubation temperature) to get plasma. The fraction free of 42 in plasma of rat and human was determined by equilibrium dialysis. Phosphate buffer was spiked with [^14C]-42 (50, 500, 5000 ng/mL) and dialyzed versus blank rat and human plasma at 37° C. for 2 hours. The radioactivity was determined in spiked blood samples, in plasma obtained after centrifugation and in both compartments after dialysis.

[5] = 48 hours i.v. infusion 100 μg/h

SMILES: Cc1cccc2c(CC3C(=O)N(CCCCCN)C(=O)N3S(=O)(=O)c3ccc(Oc4ccc(O)cc4)c(C#N)c3)c[nH]c12 (stereo not shown) [Compound 14]
- maximal decrease of sst2 (SS-1) binding ([1]; cortex and hippocampus, 10 mg/kg subcutaneous, 60 minutes): about 20%
- NS non specific binding, individual animals ([1]; cortex, 0.3 mg/kg s.c.): 2753 cpm and 2634 cpm and 2685 cpm
- NS non specific binding, mean ([1]; cortex, 0.3 mg/kg s.c.): 2691 cpm
- SB specific binding, individual animals ([1]; cortex, 0.3 mg/kg s.c.): 22427 cpm and 21257 cpm and 23789 cpm
- SB specific binding, mean ([1]; cortex, 0.3 mg/kg s.c.): 22491 cpm
- TB total binding, individual animals ([1]; cortex, 0.3 mg/kg s.c.): 25180 cpm and 23891 cpm and 26474 cpm
- TB total binding, mean ([1]; cortex, 0.3 mg/kg s.c.): 25182 cpm
- percent specific binding remaining compared to controls ([1]; cortex, 0.3 mg/kg s.c.): 98%
- NS non specific binding, individual animals ([1]; cortex, 1 mg/kg s.c.): 2623 cpm and 2705 cpm and 2642 cpm
- NS non specific binding, mean ([1]; cortex, 1 mg/kg s.c.): 2657 cpm
- SB specific binding, individual animals ([1]; cortex, 1 mg/kg s.c.): 19722 cpm and 23378 cpm and 21824 cpm
- SB specific binding, mean ([1]; cortex, 1 mg/kg s.c.): 21641 cpm
- TB total binding, individual animals ([1]; cortex, 1 mg/kg s.c.): 22345 cpm and 26063 cpm and 24466 cpm
- TB total binding, mean ([1]; cortex, 1 mg/kg s.c.): 24298 cpm
- percent specific binding remaining compared to controls ([1]; cortex, 1 mg/kg s.c.): 94%
- NS non specific binding, individual animals ([1]; cortex, 3 mg/kg s.c.): 2519 cpm and 2511 cpm and 2559 cpm
- NS non specific binding, mean ([1]; cortex, 3 mg/kg s.c.): 2530 cpm
- SB specific binding, individual animals ([1]; cortex, 3 mg/kg s.c.): 20444 cpm and 19624 cpm and 21700 cpm
- SB specific binding, mean ([1]; cortex, 3 mg/kg s.c.): 20658 cpm
- TB total binding, individual animals ([1]; cortex, 3 mg/kg s.c.): 22963 cpm and 22335 cpm and 24259 cpm
- TB total binding, mean ([1]; cortex, 3 mg/kg s.c.): 23186 cpm
- percent specific binding remaining compared to controls ([1]; cortex, 3 mg/kg s.c.): 90%
- NS non specific binding, individual animals ([1]; cortex, 10 mg/kg s.c.): 2527 cpm and 2575 cpm and 2740 cpm
- NS non specific binding, mean ([1]; cortex, 10 mg/kg s.c.): 2614 cpm
- SB specific binding, individual animals ([1]; cortex, 10 mg/kg s.c.): 19525 cpm and 18340 cpm and 19640 cpm
- SB specific binding, mean ([1]; cortex, 10 mg/kg s.c.): 19168 cpm
- TB total binding, individual animals ([1]; cortex, 10 mg/kg s.c.): 22052 cpm and 20915 cpm and 22380 cpm
- TB total binding, mean ([1]; cortex, 10 mg/kg s.c.): 21782 cpm
- percent specific binding remaining compared to controls ([1]; cortex, 10 mg/kg s.c.): 84%
- NS non specific binding, individual animals ([1]; hippocampus, 0.3 mg/kg s.c.): 2116 cpm and 2294 cpm and 2092 cpm
- NS non specific binding, mean ([1]; hippocampus, 0.3 mg/kg s.c.): 2167 cpm
- SB specific binding, individual animals ([1]; hippocampus, 0.3 mg/kg s.c.): 12566 cpm and 13303 cpm and 16338 cpm
- SB specific binding, mean ([1]; hippocampus, 0.3 mg/kg s.c.): 14069 cpm
- TB total binding, individual animals ([1]; hippocampus, 0.3 mg/kg s.c.): 14682 cpm and 15597 cpm and 18430 cpm
- TB total binding, mean ([1]; hippocampus, 0.3 mg/kg s.c.): 16238 cpm
- percent specific binding remaining compared to controls ([1]; hippocampus, 0.3 mg/kg s.c.): 113%
- NS non specific binding, individual animals ([1]; hippocampus, 1 mg/kg s.c.): 2144 cpm and 1953 cpm and 1913 cpm
- NS non specific binding, mean ([1]; hippocampus, 1 mg/kg s.c.): 2003 cpm
- SB specific binding, individual animals ([1]; hippocampus, 1 mg/kg s.c.): 12048 cpm and 15010 cpm and 14100 cpm
- SB specific binding, mean ([1]; hippocampus, 1 mg/kg s.c.): 13719 cpm
- TB total binding, individual animals ([1]; hippocampus, 1 mg/kg s.c.): 14192 cpm and 16963 cpm and 16013 cpm
- TB total binding, mean ([1]; hippocampus, 1 mg/kg s.c.): 15723 cpm
- percent specific binding remaining compared to controls ([1]; hippocampus, 1 mg/kg s.c.): 110%
- NS non specific binding, individual animals ([1]; hippocampus, 3 mg/kg s.c.): 1859 cpm and 1984 cpm and 1959 cpm
- NS non specific binding, mean ([1]; hippocampus, 3 mg/kg s.c.): 1934 cpm
- SB specific binding, individual animals ([1]; hippocampus, 3 mg/kg s.c.): 11172 cpm and 9232 cpm and 10980 cpm
- SB specific binding, mean ([1]; hippocampus, 3 mg/kg s.c.): 10461 cpm
- TB total binding, individual animals ([1]; hippocampus, 3 mg/kg s.c.): 13031 cpm and 11216 cpm and 12939 cpm
- TB total binding, mean ([1]; hippocampus, 3 mg/kg s.c.): 12395 cpm
- percent specific binding remaining compared to controls ([1]; hippocampus, 3 mg/kg s.c.): 84%
- NS non specific binding, individual animals ([1]; hippocampus, 10 mg/kg s.c.): 1886 cpm and 2078 cpm and 2037 cpm
- NS non specific binding, mean ([1]; hippocampus, 10 mg/kg s.c.): 2000 cpm
- SB specific binding, individual animals ([1]; hippocampus, 10 mg/kg s.c.): 11059 cpm and 10041 cpm and 8937 cpm
- SB specific binding, mean ([1]; hippocampus, 10 mg/kg s.c.): 10012 cpm
- TB total binding, individual animals ([1]; hippocampus, 10 mg/kg s.c.): 12945 cpm and 12119 cpm and 10974 cpm
- TB total binding, mean ([1]; hippocampus, 10 mg/kg s.c.): 12013 cpm
- percent specific binding remaining compared to controls ([1]; hippocampus, 10 mg/kg s.c.): 80%

SMILES: N#Cc1cc(S(=O)(=O)N2C(=O)N(CCCCCN)C(=O)C2Cc2c[nH]c3ccccc23)ccc1Oc1ccc(N)cc1 (stereo not shown) [Compound 42]
- concentration at 48 h ([2]; brain, 48 hours i.v. infusion 100 μg/h, read-out: Concentration in brain, MEAN ± SD): 18 ± 7 ng/g
- Kp at 48 h ([2]; 48 hours i.v. infusion 100 μg/h, read-out: Brain/Blood Ratio, MEAN ± SD): 0.27 ± 0.07
- Kp at 48 h ([2]; 48 hours i.v. infusion 100 μg/h, read-out: Brain/Blood Ratio, individual animals): 0.27
- concentration at 48 h ([2]; whole blood, 48-hours i.v. infusion of 100 μg/h, read-out: blood concentration): 66 ± 14 ng/mL
- concentration at 48 h ([2]; whole blood, 48 hours i.v. infusion 100 μg/h, read-out: Concentration in blood, MEAN ± SD): 66 ± 14 ng/g
- concentration at 48 h ([2]; whole blood, 48 hours i.v. infusion 100 μg/h, read-out: Concentration in blood, individual animals): 59 ng/g
- Brain/Blood Ratio, MEAN ± SD [2, 5]: 0.27 ± 0.07
- Brain/Blood Ratio, individual animals [2, 5]: 0.27 and 0.38 and 0.21 and 0.22
- Concentration in brain, MEAN ± SD [2, 5]: 18 ± 7 ng/g
- Concentration in brain, individual animals [2, 5]: 16 ng/g (2×) and 21 ng/g and 29 ng/g and 10 ng/g
- fraction taken up by capillaries, of the brain penetration [3]: 5%
- binding to plasma proteins [4]: 90%
- fraction free in rat plasma ([4]; 50-5000 ng/mL, 37° C.): 10-12%
